Test results: US20070134261A1, “Effectors of innate immunity” (priority 2001, published 2007)
Read-outs that look alike come from different tables or passages of the source. No end group written: not given here.

Key:
HBE cells = test: WST-1 assay (cell viability); type: cell-based, human
Protocol: (§1) The potential toxicity of the peptides was measured in two ways. First, the Cytotoxicity Detection Kit (Roche) (Lactate dehydrogenase-LDH) Assay was used. It is a colorimetric assay for the quantification of cell death and cell lysis, based on the measurement of LDH activity released from the cytosol of damaged cells into the supernatant. LDH is a stable cytoplasmic enzyme present in all cells and it is released into the cell culture supernatant upon damage of the plasma membrane. An increase in the amount of dead or plasma membrane-damaged cells results in an increase of the LDH enzyme activity in the culture supernatant as measured with an ELISA plate reader, OD490 nm (the amount of color formed in the assay is proportional to the number of lysed cells). In this assay, human bronchial epithelial cells (I6HBEo14, HBE) cells were incubated with 100 μg of peptide for 24 hours, the supernatant removed and tested for LDH. The other assay used to measure toxicity of the cationic peptides was the WST-1 assay (Roche). This assay is a colorimetric assay for the quantification of cell proliferation and cell viability, based on the cleavage of the tetrazolium salt WST-1 by mitochondrial dehydrogenases in viable cells (a non-radioactive alternative to the [^3H]-thymidine incorporation assay). In this assay, HBE cells were incubated with 100 μg of peptide for 24 hours, and then 10 μl/well Cell Proliferation Reagent WST-1 was added. The cells are incubated with the reagent and the plate is then measured with an ELISA plate reader, OD490 nm.

[1] = test system: human bronchial epithelial cells (HBE); test: LDH release assay (Cytotoxicity Detection Kit); type: cell-based; settings: 24 hours; for LDH Release (OD490 nm): 100 μg/ml, no peptide control 1.0 ± 0.05
Protocol: as §1

[2] = type: cell-based
A549 epithelial cells = test: Human Operon arrays (PRHU04-S1) of A549 cells treated with peptide alone (Tables 31-37, 53); settings: peptide 50 μg/ml, 4 h, A549 cells; for X58467 cytochrome P450, expression Ratio ID#:ctrl: Table 36
[3] = Citobacter rhodensis, overnight, 96-well plate
[4] = Enterohaemorrhagic E. coli, overnight, 96-well plate
[5] = Escherichia coli, overnight, 96-well plate
[6] = Pseudomonas aeruginosa, overnight, 96-well plate
[7] = Salmonella enteritidis ssp. typhimurium, overnight, 96-well plate
[8] = Staphylococcus aureus, overnight, 96-well plate

## RRAWWKAWWARRK [SEQ ID NO: 20]
HBE cells
  OD490 nm (WST-1 cell viability): 1.61 ± 0.21 OD490 nm
[1]
  LDH Release (OD490 nm): 1.05 ± 0.03 OD490 nm
[2]; 24 h
  MIC, C. rhod.: 16 µg/mL
  MIC, E. coli: 8 µg/mL
  MIC, EHEC: 8 µg/mL
  MIC, P. aerug.: 8 µg/mL
  MIC, S. aureus: 8 µg/mL
  MIC, S. typhim.: 8 µg/mL

## NLPDLKKPRVPATS [ID 17]
A549 epithelial cells
  ID#:ctrl intensity ratio, M14565 cytochrome P450: 6.3

## KSRIVPAIPVSLL [SEQ ID NO: 7]
HBE cells
  OD490 nm (WST-1 cell viability): 1.78 ± 0.10 OD490 nm
[1]
  LDH Release (OD490 nm): 1.01 ± 0.04 OD490 nm

## Polymyxin
[2]; [3]
  MIC, C. rhod.: 0.25 µg/mL
[2]; [4]
  MIC, EHEC: 0.5 µg/mL
[2]; [5]
  MIC, E. coli: 0.25 µg/mL
[2]; [6]
  MIC, P. aerug.: 0.25 µg/mL
[2]; [7]
  MIC, S. typhim.: 0.5 µg/mL
[2]; [8]
  MIC, S. aureus: 16 µg/mL

## RAPYWPWAWARPRK [SEQ ID NO: 21]
HBE cells
  OD490 nm (WST-1 cell viability): 1.28 ± 0.07 OD490 nm
[1]
  LDH Release (OD490 nm): 1.06 ± 0.04 OD490 nm
[2]; 24 h
  MIC, C. rhod.: 32 µg/mL
  MIC, E. coli: 64 µg/mL
  MIC, EHEC: 32 µg/mL
  MIC, P. aerug.: 96 µg/mL
  MIC, S. aureus: 64 µg/mL
  MIC, S. typhim.: 64 µg/mL

## RAPYWPWAWARPRK [ID 21]
A549 epithelial cells
  ID#:ctrl intensity ratio, X65962 cytochrome P-450: 5.7

## KMKSFAKMLMLALKKVLKVLTTALTLKAGLPS [SEQ ID NO: 43]
HBE cells
  OD490 nm (WST-1 cell viability): 0.46 ± 0.10 OD490 nm
[1]
  LDH Release (OD490 nm): 4.3 ± 0.2 OD490 nm
[1]; as measured by both assays (LDH, WST-1), HBE cells
  toxicity / membrane damage: did induce membrane damage
[2]; 24 h
  MIC, C. rhod.: 8 µg/mL
  MIC, E. coli: 8 µg/mL
  MIC, EHEC: 4 µg/mL
  MIC, P. aerug.: 16 µg/mL
  MIC, S. aureus: 128 µg/mL
  MIC, S. typhim.: 16 µg/mL

## TTLGPVKRDSIPGE [SEQ ID NO: 14]
HBE cells
  OD490 nm (WST-1 cell viability): 1.25 ± 0.02 OD490 nm
[1]
  LDH Release (OD490 nm): 0.99 ± 0.05 OD490 nm

## RRARIVPAIPVARR [SEQ ID NO: 9]
HBE cells
  OD490 nm (WST-1 cell viability): 1.69 ± 0.29 OD490 nm
[1]
  LDH Release (OD490 nm): 1.6 ± 0.03 OD490 nm

## RRRWKWAWPRRK [SEQ ID NO: 24]
HBE cells
  OD490 nm (WST-1 cell viability): 1.27 ± 0.16 OD490 nm
[1]
  LDH Release (OD490 nm): 1.05 ± 0.01 OD490 nm
[2]; 24 h
  MIC, C. rhod.: 16 µg/mL
  MIC, E. coli: 16 µg/mL
  MIC, EHEC: 4 µg/mL
  MIC, P. aerug.: 4 µg/mL
  MIC, S. aureus: 16 µg/mL
  MIC, S. typhim.: 16 µg/mL

## Triton X-100 [reference compound]
HBE cells
  OD490 nm (WST-1 cell viability): 0.26 ± 0.01 OD490 nm
[1]
  LDH Release (OD490 nm): 4.6 ± 0.1 OD490 nm

## KESIKVIIRGMMVRMKK [SEQ ID NO: 35]
HBE cells
  OD490 nm (WST-1 cell viability): 1.00 ± 0.08 OD490 nm
[1]
  LDH Release (OD490 nm): 0.88 ± 0.03 OD490 nm
[2]; 24 h
  MIC, C. rhod.: 8 µg/mL
  MIC, E. coli: 4 µg/mL
  MIC, EHEC: 4 µg/mL
  MIC, P. aerug.: 64 µg/mL
  MIC, S. aureus: 128 µg/mL
  MIC, S. typhim.: 8 µg/mL

## KWKSFLRTFKSPVRTVFHTALKPISS [SEQ ID NO: 53]
HBE cells
  OD490 nm (WST-1 cell viability): 1.51 ± 0.37 OD490 nm
[1]
  LDH Release (OD490 nm): 103 ± 0.06 OD490 nm
[2]; [3]
  MIC, C. rhod.: 16 µg/mL
[2]; [4]
  MIC, EHEC: 8 µg/mL
[2]; [5]
  MIC, E. coli: 4 µg/mL
[2]; [6]
  MIC, P. aerug.: 8 µg/mL
[2]; [7]
  MIC, S. typhim.: 8 µg/mL

## KKDAIKKVDIRGMDMRRAR [SEQ ID NO: 28]
HBE cells
  OD490 nm (WST-1 cell viability): 1.69 ± 0.03 OD490 nm
[1]
  LDH Release (OD490 nm): 0.96 ± 0.06 OD490 nm
[2]; 24 h
  MIC, C. rhod.: 64 µg/mL
  MIC, EHEC: 128 µg/mL
  MIC, S. typhim.: 64 µg/mL

## TTLGPVKRDSIPGE [ID 14]
A549 epithelial cells
  ID#:ctrl intensity ratio, M14565 cytochrome P450: 5.0

## KKQMMKRVDVRGISVKRKR [SEQ ID NO: 34]
HBE cells
  OD490 nm (WST-1 cell viability): 0.96 ± 0.05 OD490 nm
[1]
  LDH Release (OD490 nm): 1.02 ± 0.03 OD490 nm
[2]; 24 h
  MIC, C. rhod.: 64 µg/mL
  MIC, E. coli: 8 µg/mL
  MIC, EHEC: 8 µg/mL
  MIC, S. typhim.: 32 µg/mL

## KWKSYAHTIMSPVRLIFHTALKPISS [SEQ ID NO: 48]
HBE cells
  OD490 nm (WST-1 cell viability): 0.93 ± 0.08 OD490 nm
[1]
  LDH Release (OD490 nm): 0.95 ± 0.05 OD490 nm
[2]; [3]
  MIC, C. rhod.: 1 µg/mL
[2]; [4]
  MIC, EHEC: 2 µg/mL
[2]; [5]
  MIC, E. coli: 16 µg/mL
[2]; [6]
  MIC, P. aerug.: 128 µg/mL
[2]; [7]
  MIC, S. typhim.: 16 µg/mL

## KMKSFAKMLMLALKKVLKVLTTALTLKAGLPS [ID 43]
A549 epithelial cells
  X58467 cytochrome P450, expression Ratio ID#:ctrl: 7.9

## RAAFKWAWAWWRRK [ID 23]
A549 epithelial cells
  ID#:ctrl intensity ratio, X65962 cytochrome P-450: 19.8

## RRRWKWAWPRRK [ID 24]
A549 epithelial cells
  ID#:ctrl intensity ratio, X65962 cytochrome P-450: 12.0

## KNKAFAKMLMKALKKVTTAAKPLTG [SEQ ID NO: 44]
HBE cells
  OD490 nm (WST-1 cell viability): 1.49 ± 0.39 OD490 nm
[1]
  LDH Release (OD490 nm): 0.97 ± 0.03 OD490 nm
[2]; 24 h
  MIC, C. rhod.: 64 µg/mL
  MIC, E. coli: 8 µg/mL
  MIC, EHEC: 64 µg/mL
  MIC, P. aerug.: 128 µg/mL
  MIC, S. typhim.: 128 µg/mL

## KTKKFAKMLMMALKKVVSTAKPLAILS [ID 42]
A549 epithelial cells
  X58467 cytochrome P450, expression Ratio ID#:ctrl: 4.7

## Gentamicin
[2]; [3]
  MIC, C. rhod.: 0.25 µg/mL
[2]; [4]
  MIC, EHEC: 0.5 µg/mL
[2]; [5]
  MIC, E. coli: 0.25 µg/mL
[2]; [6]
  MIC, P. aerug.: 0.25 µg/mL
[2]; [7]
  MIC, S. typhim.: 0.25 µg/mL
[2]; [8]
  MIC, S. aureus: 0.25 µg/mL

## DLPAKRGSAPGST [ID 12]
A549 epithelial cells
  ID#:ctrl intensity ratio, M14565 cytochrome P450: 10.6

## RLARIVVIRVAR-NH2 [SEQ ID NO: 3, reference compound]
HBE cells
  OD490 nm (WST-1 cell viability): 1.35 ± 0.12 OD490 nm
[1]
  LDH Release (OD490 nm): 1.05 ± 0.04 OD490 nm

## RRDCRRVMVRGIDIKAK [SEQ ID NO: 36]
HBE cells
  OD490 nm (WST-1 cell viability): 1.58 ± 0.05 OD490 nm
[1]
  LDH Release (OD490 nm): 0.85 ± 0.04 OD490 nm
[2]; 24 h
  MIC, C. rhod.: 32 µg/mL
  MIC, E. coli: 32 µg/mL
  MIC, EHEC: 16 µg/mL
  MIC, S. typhim.: 32 µg/mL

## LSRIAPAIPWAKL [SEQ ID NO: 10]
HBE cells
  OD490 nm (WST-1 cell viability): 1.22 ± 0.05 OD490 nm
[1]
  LDH Release (OD490 nm): 1.04 ± 0.04 OD490 nm
[2]; 24 h
  MIC, EHEC: 64 µg/mL

## RAAFKWAWAWWRRK [SEQ ID NO: 23]
HBE cells
  OD490 nm (WST-1 cell viability): 1.14 ± 0.24 OD490 nm
[1]
  LDH Release (OD490 nm): 1.26 ± 0.46 OD490 nm
[2]; 24 h
  MIC, C. rhod.: 4 µg/mL
  MIC, E. coli: 4 µg/mL
  MIC, EHEC: 4 µg/mL
  MIC, P. aerug.: 8 µg/mL
  MIC, S. aureus: 8 µg/mL
  MIC, S. typhim.: 16 µg/mL

## SLPIKHDRLPATS [ID 15]
A549 epithelial cells
  ID#:ctrl intensity ratio, M14565 cytochrome P450: 3.6

## RRAWWKAWWARRK [ID 20]
A549 epithelial cells
  ID#:ctrl intensity ratio, X65962 cytochrome P-450: 25.3

## KRTAIKKVSRRGMSVKARR [SEQ ID NO: 37]
HBE cells
  OD490 nm (WST-1 cell viability): 1.67 ± 0.02 OD490 nm
[1]
  LDH Release (OD490 nm): 0.96 ± 0.04 OD490 nm

## KQKLFAKMLMSALKKKTLVTTPLAGK [ID 45]
A549 epithelial cells
  X58467 cytochrome P450, expression Ratio ID#:ctrl: 3.4

## KNKAFAKMLMKALKKVTTAAKPLTG [ID 44]
A549 epithelial cells
  X58467 cytochrome P450, expression Ratio ID#:ctrl: 34.4

## SELPGLKHPCVPGS [SEQ ID NO: 13]
HBE cells
  OD490 nm (WST-1 cell viability): 1.23 ± 0.11 OD490 nm
[1]
  LDH Release (OD490 nm): 0.93 ± 0.06 OD490 nm

## NLPDLKKPRVPATS [SEQ ID NO: 17]
HBE cells
  OD490 nm (WST-1 cell viability): 1.60 ± 0.46 OD490 nm
[1]
  LDH Release (OD490 nm): 0.94 ± 0.04 OD490 nm

## KCKLFKKMLMLALKKVLTTGLPALKLTK [ID 40]
A549 epithelial cells
  X58467 cytochrome P450, expression Ratio ID#:ctrl: 15.4
